We go through two compounds from patent US6924252B1, “Weed control” (Aventis Agriculture Limited, priority 1999, dated 2005).

Structures are written as SMILES.

Common to all, as to format: in vivo
The subject of data set [1] is Maize. Nature of the data set: Activity on crop after spraying on sown maize (Example 3). As to conditions: 105 g/ha, observed after 3 weeks. From the text:
(§1) Maize is sown and then grown up in area where weeds and weed seeds are present. The weeds are a selection from: Alopecurus myosuroides, Avena fatua, Digitaria sanguinalis, Echinochloa crus-galli, Eleusine indica, Lolium multiflorum, Setaria viridis, Sorghum halepense, Cyperus esculentus, Cyperus iria, Cyperus rotundus, Eleocharis acicularis, Abutilon theophrasti, Amaranthus retroflexus, Bidens pilosa, Chenopodium album, Galium aparine, Ipomgoea purpurea, Lamium purpureum, Matricaria inodora, Sesbania exalta, Sinapis arvensis, Solanum nigrum, Stellaria media, Veronica hederifolia, Veronica Persia, Viola arvensis and Xanthium strumarium.
After one week sowing the maize, isoxazole is sprayed as an encapsulated formulation as hereinbefore described at a rate of 105 g/ha of herbicidally active compound, the weight ratio of isoxazole: copolyester being 1:10. The amounts of isoxazole of formula (I) and DKN were measured after 4 days in a 5 cm deep soil core around the seed or seedling.
The activity of the isoxazole on the crop and weeds was observed after 3 weeks, and found to be equal to 2% and 95% respectively.

The subject of data set [2] is Setaria viridis. Nature of the data set: Sequential soil surface application on plots (Example 5). As to conditions: 14 DAT. From the text:
(§2) Maize is sown and grown up in an area where weeds and weed seedlings are present. The weeds are Amaranthus retroflexus, Echinochloa crus-galli and Setaria viridis. Solutions of isoxazole in acetonitrile were applied directly to the soil surface at dose rates of 100, 50 and 25 g/ha to plots A, B and C respectively. 1 DAT dose rates of 50 and 25 g/ha were applied to plots B and C respectively, 2 and 3 DAT a dose rate of 25 g/ha was applied to plot C.
(§3) Activity of the isoxazole on maize and weed species was observed 14 DAT.

Data set [3] concerns Amaranthus retroflexus. The description is as above. The following applies: 14 DAT.
Text: as §2, §3

The subject of data set [4] is Maize. Described as above. As to conditions: 14 DAT.
Text: as §2, §3

In another data set the test system is Echinochloa crus-galli. The data set is described as above. The following applies: 14 DAT.
Text: as §2, §3

Another data set concerns weeds. Nature of the data set: Activity on weeds after spraying on sown maize (Example 3). The following applies: 105 g/ha, observed after 3 weeks.
Text: as §1, with “[…],” for “exalta,”, “[…],” for “Persia,”, “strumarium. […] The amounts of isoxazole of formula (I) and DKN were measured after 4 days in a 5 cm deep soil core around the seed or seedling. The weight ratio of isoxazole: […]” for “strumarium.”

Data set [5] concerns Setaria viridis. Nature of the data set: Glasshouse pot test, soil surface application, visual % reduction (Example 1). As to conditions: 14 DAT. The protocol: (§4) 7×7 cm^2 pots were filled with a non-sterile loam soil. Weed seeds (Amaranthus retroflexus, Echinochloa crus galli and Setaria viridis) were placed in three separate shallow wells with a maize seed (Pioneer 3394) inserted to a depth of 4 cm in between in each pot and the seeds lightly covered with soil. A 1 ml solution of technical isoxaflutole, suitably diluted to give a dose equivalent to 6.25, 12.5, 25, 50 and 100 g/ha in acetonitrile, was pipetted evenly on the soil surface of pots (replicated 10 times), according to the following regime. On day 1, a set of 5 pots were treated with 5 dose rates (6.25-100 g/ha) and set aside in the glasshouse. At the same time, on day 1 a second set of 4 pots were with 4 dose rates (treatment A. 6.25-50 g/ha) along with a third set of 3 pots treated with 3 dose rates (treatment B: 6.25-25 g/ha). On day 2 each of the second and third pots were treated again the pots receiving identical treatments A and B and second set of pots set aside in the glasshouse. On day 3 each of the third set of pots were treated again, the pots receiving identical treatment B. On day 4 each of the third set of pots were treated, the pots receiving identical treatment B and the pots set aside in the glasshouse. The pots were maintained in a glasshouse, with overhead watering (3×daily) and supplementary lighting. Visual assessment of % reduction, compared to untreated control plants was recorded 14 days after treatment. The results (average of 10 replicates) arm shown on Table 1, where the dosing regime refers to the number of daily applications followed by the dose of compound on each day.

A further data set concerns Echinochloa crus galli. The description is as above. The following applies: 14 DAT. As for the experimental part:
as §4

In data set [6] the test system is Amaranthus retroflexus. Described as above. As to conditions: 14 DAT. As for the experimental part: as §4
Setting [7] is: dosing regime 2 × 6.25 g/ha (daily applications × dose).

For the compound `CS(=O)(=O)c1cc(C(F)(F)F)ccc1C(=O)c1cnoc1C1CC1` [isoxazole], the “activity of the isoxazole on the crop” value with Maize [1] was 15%. For the same compound, the “Activity SETVI” value amounted to 59 in the data set on Setaria viridis [2] (dosing regime 1 × 100 g/ha), 66 in the data set on Setaria viridis [2] (dosing regime 2 × 50 g/ha) and 77 with Setaria viridis [2] (dosing regime 4 × 25 g/ha). Besides, the “Activity AMARE” value with Amaranthus retroflexus [3] (dosing regime 1 × 100 g/ha) is 79; with Amaranthus retroflexus [3] (dosing regime 2 × 50 g/ha), 78; in the data set on Amaranthus retroflexus [3] (dosing regime 4 × 25 g/ha), 90. In addition, the “Activity Maize” value stood at 8 in the data set with Maize [4] (dosing regime 1 × 100 g/ha), 10 in the data set with Maize [4] (dosing regime 2 × 50 g/ha) and 6 with Maize [4] (dosing regime 4 × 25 g/ha). The “Activity ECHCG” value in the data set with Echinochloa crus-galli (dosing regime 1 × 100 g/ha) is 94; in the data set on Echinochloa crus-galli (dosing regime 2 × 50 g/ha), 96; with Echinochloa crus-galli (dosing regime 4 × 25 g/ha), 100. Moreover, the “activity of the isoxazole on the weeds” value in the data set with weeds worked out at 95%.

Take `CS(=O)(=O)c1cc(C(F)(F)F)ccc1C(=O)c1cnoc1C1CC1` [isoxaflutole, 5-cyclopropyl-4-(2-methylsulphonyl-4-trifluoromethylbenzoyl)isoxazole]: the “% Damage Setvi” value in the data set with Setaria viridis [5] (dosing regime 1 × 12.5 g/ha) was 0%; in the data set on Setaria viridis [5] (dosing regime 1 × 25 g/ha), 10%; in the data set with Setaria viridis [5] (dosing regime 1 × 50 g/ha), 24%; in the data set on Setaria viridis [5] (dosing regime 1 × 100 g/ha), 59%; with Setaria viridis [5] (setting [7]), 18%; in the data set with Setaria viridis [5] (dosing regime 2 × 12.5 g/ha), 42%. Also, the “% Damage Setvi” value with Setaria viridis [5] (dosing regime 2 × 25 g/ha) was 44%; with Setaria viridis [5] (dosing regime 2 × 50 g/ha) it was 66%; in the data set on Setaria viridis [5] (dosing regime 4 × 6.25 g/ha) it was 75%; in the data set on Setaria viridis [5] (dosing regime 4 × 12.5 g/ha) it was 91%; with Setaria viridis [5] (dosing regime 4 × 25 g/ha), 77%. Besides, the “% Damage Echcg” value came to 0% in the data set on Echinochloa crus galli (dosing regime 1 × 12.5 g/ha); 32% in the data set with Echinochloa crus galli (dosing regime 1 × 25 g/ha); 84% with Echinochloa crus galli (dosing regime 1 × 50 g/ha); 94% with Echinochloa crus galli (dosing regime 1 × 100 g/ha); 18% with Echinochloa crus galli (setting [7]); 68% in the data set on Echinochloa crus galli (dosing regime 2 × 12.5 g/ha). The “% Damage Echcg” value in the data set with Echinochloa crus galli (dosing regime 2 × 25 g/ha) is recorded as 70%; in the data set with Echinochloa crus galli (dosing regime 2 × 50 g/ha) it was 96%; with Echinochloa crus galli (dosing regime 4 × 6.25 g/ha) it was 97%; with Echinochloa crus galli (dosing regime 4 × 12.5 g/ha) it was 100%; in the data set with Echinochloa crus galli (dosing regime 4 × 25 g/ha) it was 100%. Besides, the “% Damage Amare” value in the data set with Amaranthus retroflexus [6] (dosing regime 1 × 12.5 g/ha) amounted to 0%; in the data set on Amaranthus retroflexus [6] (dosing regime 1 × 25 g/ha), 8%; in the data set with Amaranthus retroflexus [6] (dosing regime 1 × 50 g/ha), 50%; in the data set on Amaranthus retroflexus [6] (dosing regime 1 × 100 g/ha), 79%; in the data set on Amaranthus retroflexus [6] (setting [7]) it was 34%; in the data set on Amaranthus retroflexus [6] (dosing regime 2 × 12.5 g/ha) it was 46%. In addition, the “% Damage Amare” value with Amaranthus retroflexus [6] (dosing regime 2 × 25 g/ha) stood at 42%; in the data set with Amaranthus retroflexus [6] (dosing regime 2 × 50 g/ha), 78%; in the data set on Amaranthus retroflexus [6] (dosing regime 4 × 6.25 g/ha), 80%; in the data set on Amaranthus retroflexus [6] (dosing regime 4 × 12.5 g/ha), 79%; with Amaranthus retroflexus [6] (dosing regime 4 × 25 g/ha), 90%.
